Measurements as given in US5141627A, “Chelators whose affinity for calcium ion is increased by illumination” (The Regents of the University of California, priority 1989, dated 1992).
Where two headings read alike, the source gives them in different places.

Experiments:
[1] = Flash photolysis kinetics of carboxylic acid formation (H+ release, cresol red); type: physicochemical; settings: pH 8.0, 20° C.; for τ, time constant of phenylacetate formation and H+ release after flash photolysis, free: zero [Ca2+]
Description: When a diazoketone is photolyzed in aqueous solution the major ultimate product is a carboxylic acid. […] Product formation is thus accompanied by proton release generated (Compound 3c, Scheme I). Product formation is thus accompanied by proton release which is readily monitored spectroscopically if a suitable acid-base indicator is used. Cresol red (pKa 8.2) is chosen to monitor proton release following flash photolysis of the diazo compounds in aqueous solutions adjusted to pH 8. […] The absorbance of cresol red at 572 nm decreases with decreasing pH. As the carboxylic acid product, 3c, is generated, the solution acidifies and the transmittance of the sample is expected to rise. […] The chemical structure of the photo-labile chromophore in diazo-3 is essentially identical to that in diazo-2 (FIG. 6, Scheme IV). Correspondingly, flash photolysis of diazo-3 under identical conditions yield experimental traces which were qualitatively the same as those obtained for diazo-2. In Table I is presented the characteristic time constants for carboxylic acid formation following flash photolysis of diazo-2 and diazo-3. Flash photolysis of Ca^2+ -bound diazo-2 produced the carboxylic acid with a characteristic time of 134 μs. The time slowed to 433 μs when Ca^2+ -free diazo-2 was photolyzed.
Diazo-2 was dissolved at 70 μM concentration in 100 mM KCl, 40 μM H4. BAPTA, and enough cresol red to yield OD572 =0.1 after the solution has been adjusted to pH 8. Transmitted light intensity at 572 nm was monitored using an HG-Xe.arc lamp, a monochromator, a photo multiplier and a Biomation transient recorder. Each small division of the ordinate corresponds to 0.002 absorbance unit. The small upward spike at time zero is an optical artifact from the xenon flash lamp. The solid trace is from the sample containing diazo-2. For comparison, the dotted trace is from a photochemically inert sample containing cresol red in 100 mM KCl at pH about 8.
Kinetics of the conversion of diazo-2 and diazo-3 to the carboxylic acid products and the kinetics of Ca^2+ binding by photolyzed diazo-2 were measured by flash photolysis and pH monitoring. The experiments were done in a Dialog apparatus (Garching, FRG) normally used for temperature jumps. The xenon flash lamp was a Model 6100SP7 (Photochemical Research Associates, London, Ontario, Canada) modified to give a light pulse with a full width at half maximum of 85 μs. The output of the xenon lamp was passed through a UG-2 filter to yield broad-band UV radiation in the 330-390 range. Since neither the flash lamp nor the kinetic spectrometer was optimized for light energy, the response amplitudes achieved in the experiments are far from those attainable during a biological experiment. […]

[2] = Yield of high affinity chelator / low-affinity side product after photolysis; type: physicochemical; settings: after photolysis
Experimental: Because of the direct conjugation of the dialkylamine moiety with the diazoketone group, diazo-2 has a large absorbance in the 350-400 nm range, which shifts 50 nm to shorter wavelengths on binding Ca^2+ (FIG. 1A). The dissociation constant for Ca^2+ is relatively high, at 2.2 μM, due to the electron withdrawing ability of the carbonyl group. Photolysis occurs at 365 nm with a quantum yield of 0.030. The peak at […] in zero Ca^2+ decreases to near baseline giving a spectrum similar to that of unsubstituted BAPTA, although a small peak remains at 355 nm (FIG. 1B). […] The reaction of diazo-2 with dilute aqueous acid should give the same product whose absorbance spectrum indeed matched that of the residual peak at 355 nm after photolysis in low Ca^2+. […] Once the extinction coefficient for the hydroxyacetyl derivative was known, the amount of the side product arising from photolysis is calculated to be about 10%.

[3] = Mg2+ affinity in Mg/EGTA buffers; type: binding; settings: 0.1-0.15M ionic strength, pH 7.0-7.4, 20-23° C.
Experimental: Ca^2+ -binding constants for chelators before and after photolysis were determined by monitoring UV spectra during titration of EGTA or HEEDTA buffers to varying free Ca^2+ levels.
Free [Mg^2+ ] was likewise controlled by Mg/EGTA buffers, assuming an apparent dissociation constant for the Mg.EGTA complex (including its monoprotonated form) of 6 mM at pH 7.60 in 0.1M ionic strength; see R. Y. Tsien, et al. (1986) and A. E. Martell, et al. (1974).

[4] = Quantum efficiency and completion of photolysis; type: physicochemical; settings: for Φ quantum efficiency of photolysis, free: zero [Ca2+]
Experimental: Spectra were obtained after 0, 2, 5, 9, 16, 28, 46, 80, 150, 285, 505 and 903 sec of 365-nm illumination at 7.82×10^- 9 einsteins cm^-2 s^-1 from Spectroline lamp. For clarity only the 0-, 9-, 28-, 46-, 80-, 150-, and 505-s spectra are reproduced herein. The 505- and 903-s spectra were identical, confirming completion of photolysis after those times. Solutions were at 22±2° C.
The method was as described in FIG. 1B except that the EGTA was replaced by 2 mM CaCl2, and spectra were measured after 0-, 50-, 100-, 203-, 412-, 840-, 1730-, 4080-, and 8000-s illumination. The last two spectra were identical, confirming completion. For clarity the 50- and 8000-s spectra are omitted.
The photolysis quantum efficiencies of diazo chelators were determined by alternately irradiating a buffered solution of the substrate with a known intensity of longwave UV light, and measuring the absorbance spectrum, in apparatus described by S. R. Adams, et al. (1988), supra.

[5] = Chemical stability in aqueous base or acid; type: physicochemical
Description: Diazo-2 tetramethyl ester, Compound 3J, was saponified to the tetra-anion by dissolution in methanol (gentle heat), addition of an excess of aqueous 1M potassium hydroxide solution and keeping at room temperature several hours, preferably overnight. […] The purity of diazo-2 solutions can be determined by measuring the extent of absorbance change on complete photolysis (FIG. 1B) as contaminants contribute absorbance at 355 nm. Diazo-1, -3, and -4 esters were saponified analogously.

cells = assay: Effect in cells of microinjected chelator on Ca2+ after photolysis; type: cell-based; settings: microinjected into cells
[6] = after photolysis, read-out: Kd (Mg2+), after photolysis

| Structure (SMILES) | τ, time constant of phenylacetate formation and H+ release after flash photolysis, free [1] [μs] | τ, time constant of phenylacetate formation and H+ release after flash photolysis, free ([1]; listed as Diazo-3) [μs] | Photolysis yield (yield of high affinity Ca2+ chelator after photolysis) [2] | Kd [3, 6] [mM] | Φ quantum efficiency of photolysis, free [4] | stability on concentration to a solid (in words) ([5]; from dilute aqueous base, concentrated to a solid) | stability in dilute aqueous base (in words) ([5]; methanol/aqueous KOH, room temperature, several hours to overnight) | stability in strong aqueous base or acid (in words) ([5]; pH>13 or pH<4) | τ, time constant of phenylacetate formation and H+ release after flash photolysis, +Ca2+ ([1]; saturating [Ca2+], additional fast alkalinization component present) [μs] | sequestering Ca2+ after photolysis (in words) (cells) | Kd ([3]; before photolysis, read-out: Kd (Mg2+), before photolysis) [mM] | quantum yield of photolysis ([4]; 365 nm) | illumination time to completion of photolysis, free ([4]; 365 nm, 7.82×10^-9 einsteins cm^-2 s^-1, absence of Ca2+, 8 μM) [s] | Φ quantum efficiency of photolysis, +Ca2+ ([4]; saturating [Ca2+]) |
| --- | --- | --- | --- | --- | --- | --- | --- | --- | --- | --- | --- | --- | --- | --- |
| COc1cc(C(=O)C=[N+]=[N-])ccc1N(CC(=O)O)CC(=O)O [diazo-3, 2-methoxy-4-(diazoacetyl)aniline-N, N-diacetic acid] | 239 | 238 | 0 | ~20 | 0.048 | – | – | – | – | – | – | – | – | – |
| Cc1ccc(N(CC(=O)O)CC(=O)O)c(OCCOc2cc(C(=O)C=[N+]=[N-])ccc2N(CC(=O)O)CC(=O)O)c1 [diazo-2, 1-(2-bis(carboxymethyl)amino-5-methyl) phenoxy-2-(2-bis(carboxymethyl)amino-5-(diazoacetyl)phenoxy) ethane] | 433 | – | 90 | 3.4 | 0.057 | decomposes and becomes light-insensitive | stable | unstable | 134 | effective in sequestering Ca^2+ after photolysis | 5.5 | 0.030 | ≤ 505 | 0.030 |
